The values that follow come from patent publication US9226916B2, “Pyrrolidine derivatives” (HOFFMANN-LA ROCHE INC., priority 2009, dated 2016).

The target in the assay is T1, recombinant human NK3 receptor (Homo sapiens, UniProt P29371).
T1 construct: expressed in transfected cells; host or cells: HEK293 cells, transient expression; membranes
T1 sequence (P29371 1-465): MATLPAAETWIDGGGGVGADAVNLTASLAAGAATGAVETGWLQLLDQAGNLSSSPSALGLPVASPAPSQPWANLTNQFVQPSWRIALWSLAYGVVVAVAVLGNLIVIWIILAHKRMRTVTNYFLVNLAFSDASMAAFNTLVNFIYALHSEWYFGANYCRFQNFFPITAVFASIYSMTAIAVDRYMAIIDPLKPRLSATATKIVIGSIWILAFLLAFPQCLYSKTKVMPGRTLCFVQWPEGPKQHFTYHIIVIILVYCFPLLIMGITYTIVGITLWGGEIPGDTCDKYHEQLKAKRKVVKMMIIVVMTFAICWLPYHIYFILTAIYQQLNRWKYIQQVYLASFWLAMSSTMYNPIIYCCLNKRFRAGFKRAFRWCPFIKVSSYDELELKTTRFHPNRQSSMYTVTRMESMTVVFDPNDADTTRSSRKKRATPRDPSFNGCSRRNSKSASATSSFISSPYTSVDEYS
The assay can be described thus: [3H]SR142801 competition binding assay.

The mark [1] stands for this setting: hNK-3 receptor affinity, membranes from HEK293 cells transiently expressing recombinant human NK3 receptor, [3H]SR142801, Cheng-Prussoff, read-out: Data Ki.

One may read the Ki as the equilibrium dissociation constant of an inhibitor or competing ligand from its target.

Where two headings read alike, the source gives them in different places.

`CN(C(=O)OCC1(C)CC1)[C@@H]1CN(C(=O)C2CCN(C(=O)C3(C)CC3)CC2)C[C@H]1c1ccc(Cl)c(Cl)c1` [Example 105, {(3S,4R)-4-(3,4-Dichloro-phenyl)-1-[1-(1-methyl-cyclopropanecarbonyl)-piperidine-4-carbonyl]-pyrrolidin-3-yl}-methyl-carbamic acid 1-methyl-cyclopropylmethyl ester]: the Ki under setting [1] is 70.5 nM.
On the same count and under the same terms, the same measure for `CN(C(=O)OCC1(C)CC1)[C@H]1CN(C(=O)C2CCN(C(=O)C3(C)CC3)CC2)C[C@@H]1c1ccc(Cl)c(Cl)c1` [Example 106, {(3R,4S)-4-(3,4-Dichloro-phenyl)-1-[1-(1-methyl-cyclopropanecarbonyl)-piperidine-4-carbonyl]-pyrrolidin-3-yl}-methyl-carbamic acid 1-methyl-cyclopropylmethyl ester]: 1 nM; for `CN(C(=O)O[C@H]1CC[C@@H](C(F)(F)F)CC1)[C@H]1CN(C(=O)C2CCN(C(=O)C3(C)CC3)CC2)C[C@@H]1c1ccc(Cl)c(Cl)c1` [Example 107, {(3R,4S)-4-(3,4-Dichloro-phenyl)-1-[1-(1-methyl-cyclopropanecarbonyl)-piperidine-4-carbonyl]-pyrrolidin-3-yl}-methyl-carbamic acid 4-trifluoromethyl-cyclohexyl ester]: 58.6 nM.
Still for that read-out and setting: the same measure for `CN(C(=O)O[C@H]1CC[C@@H](C(F)(F)F)CC1)[C@@H]1CN(C(=O)C2CCN(C(=O)C3(C)CC3)CC2)C[C@H]1c1ccc(Cl)c(Cl)c1` [Example 108, {(3S,4R)-4-(3,4-Dichloro-phenyl)-1-[1-(1-methyl-cyclopropanecarbonyl)-piperidine-4-carbonyl]-pyrrolidin-3-yl}-methyl-carbamic acid 4-trifluoromethyl-cyclohexyl ester]: 0.7 nM.
For `CN(C(=O)Oc1ccc(F)cc1)[C@@H]1CN(C(=O)C2CCN(C3CCS(=O)(=O)CC3)CC2)C[C@H]1c1ccc(Cl)cc1` [Example 109, {(3S,4R)-4-(4-Chloro-phenyl)-1-[1-(1,1-dioxo-hexahydro-1λ^6-thiopyran-4-yl)-piperidine-4-carbonyl]-pyrrolidin-3-yl}-methyl-carbamic acid 4-fluoro-phenyl ester], the inhibitory constant (Ki) was determined as 0.2 nM.
In the case of `CN(C(=O)Oc1ccc(F)cc1)[C@@H]1CN(C(=O)C2CCN(c3ccc(Cl)nn3)CC2)C[C@H]1c1ccc(Cl)cc1` [Example 110, {(3S,4R)-4-(4-Chloro-phenyl)-1-[1-(6-chloro-pyridazin-3-yl)-piperidine-4-carbonyl]-pyrrolidin-3-yl}-methyl-carbamic acid 4-fluoro-phenyl ester], the Ki was determined as 0.3 nM.
With `CN(C(=O)Oc1ccc(F)cc1)[C@@H]1CN(C(=O)C2CCN(C3CCOCC3)CC2)C[C@H]1c1ccc(Cl)cc1` [Example 112, {(3S,4R)-4-(4-Chloro-phenyl)-1-[1-(tetrahydro-pyran-4-yl)-piperidine-4-carbonyl]-pyrrolidin-3-yl}-methyl-carbamic acid 4-fluoro-phenyl ester], the Ki was determined as 3.7 nM.
On the same count and under the same terms, to `CN(C(=O)Oc1ccc(F)c(Br)c1)[C@@H]1CN(C(=O)C2CCN(C(=O)C3(C)CC3)CC2)C[C@H]1c1ccc(Cl)c(Cl)c1` [Example 113, {(3S,4R)-4-(3,4-Dichloro-phenyl)-1-[1-(1-methyl-cyclopropanecarbonyl)-piperidine-4-carbonyl]-pyrrolidin-3-yl}-methyl-carbamic acid 3-bromo-4-fluoro-phenyl ester] belongs 0.3 nM; to `CN(C(=O)Oc1ccc(F)cc1)[C@@H]1CN(C(=O)CCN2CCOCC2)C[C@H]1c1ccc(Cl)cc1` [Example 114, [(3S,4R)-4-(4-Chloro-phenyl)-1-(3-morpholin-4-yl-propionyl)-pyrrolidin-3-yl]-methyl-carbamic acid 4-fluoro-phenyl ester], 83 nM.
The same measure, in the same setting: to `CN(C(=O)Oc1ccc(F)cc1)[C@@H]1CN(C(=O)C2CCN(C3CCS(=O)(=O)C3)CC2)C[C@H]1c1ccc(Cl)cc1` (stereo partly drawn) [Example 115, {(3S,4R)-4-(4-Chloro-phenyl)-1-[1-(1,1-dioxo-tetrahydro-1λ^6-thiophen-3-yl)-piperidine-4-carbonyl]-pyrrolidin-3-yl}-methyl-carbamic acid 4-fluoro-phenyl ester] belongs 1.3 nM; to `CN(C(=O)Oc1ccc(F)cc1)[C@@H]1CN(C(=O)C2CCC(CO)CC2)C[C@H]1c1ccc(Cl)cc1` (stereo partly drawn) [Example 116, [(3S,4R)-4-(4-Chloro-phenyl)-1-(4-hydroxymethyl-cyclohexanecarbonyl)-pyrrolidin-3-yl]-methyl-carbamic acid 4-fluoro-phenyl ester], 10 nM.
On the same count and under the same terms, the same measure for `CN(C(=O)Oc1ccc(F)cc1)[C@@H]1CN(C(=O)C2CCC(F)(F)CC2)C[C@H]1c1ccc(Cl)cc1` [Example 117, [(3S,4R)-4-(4-Chloro-phenyl)-1-(4,4-difluoro-cyclohexanecarbonyl)-pyrrolidin-3-yl]-methyl-carbamic acid 4-fluoro-phenyl ester]: 17.4 nM.
In the case of `Cc1ccc(N2CCC(C(=O)N3C[C@@H](N(C)C(=O)Oc4ccc(F)cc4)[C@H](c4ccc(Cl)cc4)C3)CC2)nn1` [Example 118, {(3S,4R)-4-(4-Chloro-phenyl)-1-[1-(6-methyl-pyridazin-3-yl)-piperidine-4-carbonyl]-pyrrolidin-3-yl}-methyl-carbamic acid 4-fluoro-phenyl ester], the Ki is 0.3 nM.
With `CN(C(=O)Oc1ccc(F)cc1)[C@H]1CN(C(=O)C2CCN(c3ccc(C#N)cn3)CC2)C[C@@H]1c1ccc(Cl)cc1` [Example 122, [(3R,4S)-4-(4-Chloro-phenyl)-1-(5′-cyano-3,4,5,6-tetrahydro-2H-[1,2′]bipyridinyl-4-carbonyl)-pyrrolidin-3-yl]-methyl-carbamic acid 4-fluoro-phenyl ester], the inhibition constant (Ki) came to 19 nM.
For `CN(C(=O)O[C@H]1CC[C@H](C(F)(F)F)CC1)[C@H]1CN(C(=O)C2CCN(c3ccc(C#N)cn3)CC2)C[C@@H]1c1ccc(Cl)cc1` [Example 125, [(3R,4S)-4-(4-Chloro-phenyl)-1-(5′-cyano-3,4,5,6-tetrahydro-2H-[1,2′]bipyridinyl-4-carbonyl)-pyrrolidin-3-yl]-methyl-carbamic acid 4-trifluoromethyl-cyclohexyl ester], under setting [1], the inhibition constant Ki is 50.9 nM.
The same measure, in the same setting: to `CN(C(=O)O[C@H]1CC[C@H](C(F)(F)F)CC1)[C@@H]1CN(C(=O)C2CCN(c3ccc(C#N)cn3)CC2)C[C@H]1c1ccc(Cl)cc1` [Example 126, [(3S,4R)-4-(4-Chloro-phenyl)-1-(5′-cyano-3,4,5,6-tetrahydro-2H-[1,2′]bipyridinyl-4-carbonyl)-pyrrolidin-3-yl]-methyl-carbamic acid 4-trifluoromethyl-cyclohexyl ester] belongs 1.2 nM.
With `CN(C(=O)OCCCC(F)(F)F)[C@@H]1CN(C(=O)C2CCN(c3ccc(C#N)cn3)CC2)C[C@H]1c1ccc(Cl)cc1` [Example 127, [(3S,4R)-4-(4-Chloro-phenyl)-1-(5′-cyano-3,4,5,6-tetrahydro-2H-[1,2′]bipyridinyl-4-carbonyl)-pyrrolidin-3-yl]-methyl-carbamic acid 4,4,4-trifluoro-butyl ester], the Ki turned out to be 4 nM.
Still for that read-out and setting: to `CN(C(=O)OCCCC(F)(F)F)[C@H]1CN(C(=O)C2CCN(c3ccc(C#N)cn3)CC2)C[C@@H]1c1ccc(Cl)cc1` [Example 128, [(3R,4S)-4-(4-Chloro-phenyl)-1-(5′-cyano-3,4,5,6-tetrahydro-2H-[1,2′]bipyridinyl-4-carbonyl)-pyrrolidin-3-yl]-methyl-carbamic acid 4,4,4-trifluoro-butyl ester] belongs 68 nM.
